In this assay the target is T1, IRE1α (Homo sapiens, UniProt O75460).
T1 construct: gene ERN1
Put plainly: cell-free in vitro IRE1α RNase assay on XBP1 and BLOC1S1 RNA substrates. Format: biochemical.

For one compound, IC50 results are on record in PMC5025885, “Identification of Doxorubicin as an Inhibitor of the IRE1α-XBP1 Axis of the Unfolded Protein Response” (Scientific Reports, 2016).

What is called IC50 is the concentration needed to halve the response being measured. A lower IC50 goes with greater potency.

T1 sequence (O75460 19-977): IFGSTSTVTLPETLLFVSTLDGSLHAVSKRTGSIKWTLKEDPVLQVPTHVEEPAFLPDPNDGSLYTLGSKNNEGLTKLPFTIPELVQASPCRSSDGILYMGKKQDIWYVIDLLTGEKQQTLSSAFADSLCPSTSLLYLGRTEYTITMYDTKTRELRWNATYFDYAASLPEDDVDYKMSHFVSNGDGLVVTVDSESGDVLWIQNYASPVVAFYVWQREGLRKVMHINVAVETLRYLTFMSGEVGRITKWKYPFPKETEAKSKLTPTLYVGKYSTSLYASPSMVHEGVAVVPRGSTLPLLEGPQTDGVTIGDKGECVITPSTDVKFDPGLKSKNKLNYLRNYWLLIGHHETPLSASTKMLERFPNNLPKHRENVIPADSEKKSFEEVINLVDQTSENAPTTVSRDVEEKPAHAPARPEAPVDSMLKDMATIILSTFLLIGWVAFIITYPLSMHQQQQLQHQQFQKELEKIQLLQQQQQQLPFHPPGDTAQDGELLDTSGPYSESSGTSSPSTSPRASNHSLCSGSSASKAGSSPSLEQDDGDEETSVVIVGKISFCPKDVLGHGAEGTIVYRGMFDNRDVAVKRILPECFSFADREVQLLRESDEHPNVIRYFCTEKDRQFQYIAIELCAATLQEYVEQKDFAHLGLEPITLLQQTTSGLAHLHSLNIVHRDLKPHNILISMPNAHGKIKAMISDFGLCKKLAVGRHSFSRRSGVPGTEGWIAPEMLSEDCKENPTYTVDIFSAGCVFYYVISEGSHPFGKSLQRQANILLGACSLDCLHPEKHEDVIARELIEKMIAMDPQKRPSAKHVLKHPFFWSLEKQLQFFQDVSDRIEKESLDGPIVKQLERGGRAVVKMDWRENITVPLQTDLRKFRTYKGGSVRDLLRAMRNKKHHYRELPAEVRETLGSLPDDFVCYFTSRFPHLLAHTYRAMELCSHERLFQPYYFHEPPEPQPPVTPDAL

In turn, `COc1cccc2c1C(=O)c1c(O)c3c(c(O)c1C2=O)C[C@@](O)(C(=O)CO)C[C@@H]3O[C@H]1C[C@H](N)[C@H](O)[C@H](C)O1` [doxorubicin] gave an IC50 of around 20 µM.
